Data published in patent US20100179225A1, “POI Prevention” (CYTOKINE PHARMASCIENCES, INC., priority 2008, published 2010).

What was measured:
[1] = tested on: nitric oxide (NO) production in ME; assay: Nitric oxide release from rat ME cultures (Griess reaction) after IM; type: in vivo; conditions: rats
Experimental: Animals underwent IM after intravenous CNI-1493 (5 mg/kg) or oral CPSI-2364 (1 mg/kg or 0.1 mg/kg) administration 90 minutes before surgery. Control animals received CNI-1493 (5 mg/kg) intravenously or CPSI-2364 orally (1 mg/kg or 0.1 mg/kg), but were not operated.
Total ME from small intestine was isolated 24 h after operation as described above and then cut into small pieces and washed for 30 minutes in PBS containing a penicillin/streptomycin (200U/200 μg) mixture. Aliquots of ˜50 mg were incubated in 1 mL of DMEM at 37° C. and 5% CO2 for further 24 hours and tissue culture supernatants were frozen in liquid nitrogen. The muscle tissue was blotted dry, and the exact weight was measured. To quantify the generation of NO from intestinal smooth muscle preparations, nitrite production was measured by the Griess reaction as described previously (Kalff J C, Schraut W H, Billiar T R et al. Role of inducible nitric oxide synthase in postoperative intestinal smooth muscle dysfunction in rodents. Gastroenterology 2000; 118:316-327). In brief, supernatant from the tissue culture was mixed with an equal volume of Griess reagent (0.1% N-(1-napthyl)ethyl-enediamine dihydrochloride and 1% sulfanilamide in 6% phosphoric acid; 1:1) and incubated for 10 minutes. The absorbance at 550 nm was measured with a microplate reader and compared with standard dilutions of sodium nitrite. […]

[2] = tested on: circular smooth muscle of the graft; assay: Mechanical in vitro activity of mid-jejunum graft circular smooth muscle (bethanechol); type: in vivo, Lewis rats; conditions: 1 mg/kg i.v. 90 min before; 18 h reperfusion; 100 μmol/L bethanechol
Experimental: Syngeneic orthotopic small intestinal transplantation was performed in Lewis rats as previously described (Schwarz N T, Nakao A, Nalesnik M A, Kalff J C, Murase N, Bauer A J. Protective effects of ex vivo graft radiation and tacrolimus on syngeneic transplanted rat small bowel motility. Surgery 2002; 131: 413-423). […] Then the graft vascular bed was perfused with chilled UW solution (University of Wisconcin) and the intestinal lumen was irrigated with 50 ml cold 0.9% NaCl solution containing […]. neomycin sulfate (Uro Nebacetin N, Nycomed, Germany). The graft was stored in cold UW solution during the preparation of the recipient. […]
Mechanical in vitro activity of the mid-jejunum was evaluated at 18 hours after reperfusion using smooth muscle strips of the circular muscularis as described previously (N=8 each) (Kalff J C, Schraut W H, Simmons R L, Bauer A J. Surgical manipulation of the gut elicits an intestinal muscularis inflammatory response resulting in postsurgical ileus. Ann Surg 1998; 228: 652-663). […] The contractile response was analyzed with the ADI Chart© software and the contractions were calculated as grams per square millimeter per second by conversion of the weight and length of the strip to square millimeters of tissue.

MIP-1α mRNA = assay: Proinflammatory gene expression in ME, real-time RT-PCR: MIP-1α; type: in vivo, mice; conditions: 5 mg/kg i.v. preoperative, vs placebo IM
Excerpt: The small bowel of the animals was subjected to a standardized, surgical manipulation (IM) as described previously (Kalff J C, Schraut W H, Simmons R L et al. Surgical manipulation of the gut elicits an intestinal muscularis inflammatory response resulting in postsurgical ileus. Ann Surg 1998; 228:652-663; Wehner S, Schwarz N T, Hundsdoerfer R et al. Induction of IL-6 within the rodent intestinal muscularis after intestinal surgical stress. Surgery 2005; 137:436-446). In brief, after anesthesia a midline abdominal incision was made into the peritoneal cavity. […]
Proinflammatory gene expression was analyzed in placebo and CNI-1493 (5 mg/kg) treated animals at 1, 3, 6 and 24 hours after operation; n=5-7 each group. […] Total RNA was analyzed in ME specimen that was prepared as described before (Wehner S, Behrendt F F, Lyutenski B N et al. Inhibition of macrophage function prevents intestinal inflammation and postoperative ileus in rodents. Gut 2007; 56:176-185). […] Expression of mRNA was quantified in triplicate by a RT-PCR with gene expression assays for […] (MCP-1; #Mm00441242_m1), CCL3 (MIP-1α #Mm00441258_m1), IL-6 (Assay ID #Mm00446190_ml), TNF-α (#Mm00443258_m1) and ICAM-1 (#Mm00516023_m1). […] Data quantification was performed by the ΔΔCT method. […]

Row | SMILES | NO production from ME vs placebo IM ([1]; 0.1 mg/kg bodyweight p.o.) | NO production from ME vs placebo IM ([1]; p.o. preoperative (FIG. 12)) | circular smooth muscle contractile force [2] | increase in circular smooth muscle contractile activity in comparison to the vehicle grafts [2] | reduction of MIP-1α expression (MIP-1α mRNA; 3 hours after IM) | reduction of MIP-1α expression (MIP-1α mRNA; 6 hours after IM)
1 | C/C(=N\N=C(N)N)c1cc(NC(=O)CCCCCCCCC(=O)Nc2cc(/C(C)=N/N=C(N)N)cc(/C(C)=N/N=C(N)N)c2)cc(/C(C)=N/N=C(N)N)c1.CS(=O)(=O)O.CS(=O)(=O)O.CS(=O)(=O)O.CS(=O)(=O)O [CPSI-2364] | led to the described results | significantly diminished | 3.63 grams/mm2/sec | 96% |  | 
2 | C/C(=N\N=C(N)N)c1cc(NC(=O)CCCCCCCCC(=O)Nc2cc(/C(C)=N/N=C(N)N)cc(/C(C)=N/N=C(N)N)c2)cc(/C(C)=N/N=C(N)N)c1.Cl.Cl.Cl.Cl [CNI-1493] |  |  |  |  | 50% | 39%
